What is called IC50 is the concentration that inhibits the measured activity by half.

The target in test [1] is α4β7 integrin (Homo sapiens (Human), UniProt P13612+P26010). As to the kind of experiment: Integrin Adhesion Assay: Protocol 4 (MAdCAM-coated plate, RPMI-8866 cells with stable LOF mutation of the ITGB1 gene). Type of test: cell-based. The procedure: (§1) Integrin Adhesion Assay Using Genetically Modified Cells Generating Stable Cell Lines with ITGB1 or ITGB7 Knockout (Protocol 4 and Protocol 5)
Chain of α4β7 integrin (P13612 34-1032): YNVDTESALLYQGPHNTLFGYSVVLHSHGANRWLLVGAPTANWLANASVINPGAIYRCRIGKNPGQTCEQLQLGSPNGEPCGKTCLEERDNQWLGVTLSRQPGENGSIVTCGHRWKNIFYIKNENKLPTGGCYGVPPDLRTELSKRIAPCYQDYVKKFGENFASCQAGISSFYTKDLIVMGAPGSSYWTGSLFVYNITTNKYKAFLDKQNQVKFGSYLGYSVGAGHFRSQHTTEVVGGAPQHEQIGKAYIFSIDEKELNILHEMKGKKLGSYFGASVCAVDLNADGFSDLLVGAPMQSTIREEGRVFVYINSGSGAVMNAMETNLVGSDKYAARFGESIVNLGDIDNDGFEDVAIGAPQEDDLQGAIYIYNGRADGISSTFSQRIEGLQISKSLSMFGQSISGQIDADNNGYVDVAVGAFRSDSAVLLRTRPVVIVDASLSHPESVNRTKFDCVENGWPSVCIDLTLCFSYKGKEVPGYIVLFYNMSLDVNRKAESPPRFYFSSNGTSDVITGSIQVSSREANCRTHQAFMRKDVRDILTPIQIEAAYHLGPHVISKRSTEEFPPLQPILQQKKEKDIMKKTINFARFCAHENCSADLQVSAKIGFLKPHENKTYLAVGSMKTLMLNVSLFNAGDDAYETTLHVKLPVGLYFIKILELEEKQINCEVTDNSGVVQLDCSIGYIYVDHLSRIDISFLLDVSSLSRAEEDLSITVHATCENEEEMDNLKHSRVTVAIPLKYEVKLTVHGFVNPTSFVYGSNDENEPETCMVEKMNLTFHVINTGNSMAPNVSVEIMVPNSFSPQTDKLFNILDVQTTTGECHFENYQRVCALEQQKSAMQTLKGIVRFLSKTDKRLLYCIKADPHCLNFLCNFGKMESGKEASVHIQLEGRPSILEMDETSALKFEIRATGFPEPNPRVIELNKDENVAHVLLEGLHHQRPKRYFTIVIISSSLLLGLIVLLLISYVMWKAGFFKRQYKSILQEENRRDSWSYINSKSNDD
Chain of α4β7 integrin (P26010 20-798): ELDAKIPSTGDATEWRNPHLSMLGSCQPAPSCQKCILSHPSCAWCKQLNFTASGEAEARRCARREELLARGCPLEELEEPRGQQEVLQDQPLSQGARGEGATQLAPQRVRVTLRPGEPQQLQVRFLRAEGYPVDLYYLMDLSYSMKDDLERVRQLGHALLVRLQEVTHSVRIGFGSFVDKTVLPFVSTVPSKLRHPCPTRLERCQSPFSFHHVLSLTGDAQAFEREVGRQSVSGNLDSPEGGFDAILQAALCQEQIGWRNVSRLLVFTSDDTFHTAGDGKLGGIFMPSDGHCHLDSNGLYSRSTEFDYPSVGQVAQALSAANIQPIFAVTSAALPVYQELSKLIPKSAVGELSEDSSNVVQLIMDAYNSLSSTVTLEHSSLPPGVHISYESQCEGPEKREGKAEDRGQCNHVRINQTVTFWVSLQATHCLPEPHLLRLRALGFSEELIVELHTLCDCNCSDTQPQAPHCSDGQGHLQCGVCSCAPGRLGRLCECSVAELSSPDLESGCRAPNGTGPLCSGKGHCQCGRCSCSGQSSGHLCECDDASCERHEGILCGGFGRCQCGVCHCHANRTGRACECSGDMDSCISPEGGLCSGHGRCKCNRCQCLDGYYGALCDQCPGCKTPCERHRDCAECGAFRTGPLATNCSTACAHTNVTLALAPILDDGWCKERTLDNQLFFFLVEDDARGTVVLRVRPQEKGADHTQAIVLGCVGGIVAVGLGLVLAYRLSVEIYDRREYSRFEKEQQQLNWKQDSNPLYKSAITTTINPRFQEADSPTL
(§2) To obtain subclones of the RPMI-8866 cell line (Sigma-Aldrich, St. Louis, MO) that were individually deficient in either integrin β1 or integrin β 7, CRISPR/Cas9 technology was employed (PMID: 30108345). Specifically, a Neon™ Transfection System System 10 μL Kit and the Neon™ Transfection device (both from ThermoFisher Scientific) were used.
(§3) The protocol was performed following the manufacturer instructions, described in https://www.thermofisher.com/document-connect/document-connect.html?url=https % 3A%2F%2F assets.thermofisher.com%2FTFS-Assets%2FLSG%2Fmanuals%2FMAN0017066_TrueCut Cas9_Protein_v2_UG.pdf, which is incorporated by reference herein in its entirety.
(§4) RPMI-8866 cells were transferred to a flask the day before transfection, at a confluence of 5×10^5 cells/mL. The cells were washed with PBS and resuspended in buffer R (Neon™ Transfection System, Invitrogen) to 2×10^5 cells/10 uL for each reaction. The TrueCut™ HiFi Cas9 Protein (1250 ng per reaction) was mixed with TrueGuide™ sgRNA (7.5 pmoles each/pool of 3 sequences, table 1) (ThermoFisher Scientific). This mix was combined with the RPMI-8866 cells and electroporated on the Neon system at 1700V/20 ms/1 pulse. Transfected cells were allowed to recover in 500 μL pre-warmed cRMPI media (RPMI-1640 media with 10% FBS, 100 U/ml Penicillin-Streptomycin) at 37° C., 5% CO2 for 24 hours. At that time, an extra 500 μL of pre-warmed cRMPI media was added, and cells were incubated for another 24 hours.
(§5) For flow cytometry analysis, 100 μL of the transfected cells were collected and stained with anti-itga4 (Clone: 9F10, PE, BD Pharmingen™), anti-itgb 1 (Clone: (TS2/16), Super Bright 436, eBioscience), anti-itgb7 (Clone: FIB504, Brilliant Violet 650, BD Pharmingen™) and viability dye (LIVE/DEAD™ Fixable Green Dead Cell Stain, Invitrogen™). An Attune NxT Flow Cytometer was used to analyze the CRISPR-transfected cells. The flow cytometry results were analyzed using FlowJo™ v10.8.1 Software (BD Life Sciences). Fluorescence minus one (FMO) controls were used to select appropriate gates for data analysis.
(§6) To generate an individual clones of cells deficient in either ITGB7 or ITGB1 by limiting dilution assay, the transfected cells were resuspended at 5 cells/mL and seeded in 384 well plates. Outgrowth of clones was monitored using a microscope, and 24 clones were transferred for expansion. Expression of either integrin was verified by flow cytometry in each of the clones. One clone of each integrin b7 or the integrin b1 knockout was chosen, expanded and aliquots were frozen in vapor phase liquid nitrogen.
Integrin Adhesion Assay: Protocol 4
(§7) MAdCAM (R&D Systems, 0.1 ug) was diluted in 50 μL PBS, added to each well of an opaque ELISA plate (Thermo), and incubated overnight at 4° C. Coated plates were washed once with PBS and then blocked with 200 μL of assay buffer (10 mM HEPES, 150 mM NaCl, 1 mM MnCl2, 0.1 mM CaCl2), 1% BSA) for 1 hour at 37° C. and 5% CO2. After incubation, buffer was aspirated from the plates and 50 μL of fresh assay buffer was added. Compounds were added using a compounds dispenser (Tecan), and DMSO concentration was normalized to 1% across each plate. 50 μL of RPMI-8866 cells with a stable loss of function (LOF) mutation of the ITGB1 gene (2×10^6 per mL) were added to each well and the plates were incubated for 1 hour at 37° C. at a CO2 concentration of 5%. After incubation, plates were allowed to cool to RT for 10 minutes before being washed four times in assay buffer by an automated plate washer (BioTek). After washing, 100 μL of a 1:1 mixture of assay buffer and CellTiter GLO 2.0 reagent (Promega) were added to each well. Plates were mixed for 2 minutes at 1000 rpm and then allowed to incubate an additional 10 minutes before reading out luminescence on a Tecan Spark plate reader. […]

Test [2] concerns the target α4β1 integrin (Homo sapiens (Human), UniProt P05556+P13612). The test is described as follows: Integrin Adhesion Assay: Protocol 5 (VCAM-coated plate, RPMI-8866 cells with stable LOF mutation of the ITGB7 gene). Type of test: cell-based. The protocol: as §1, §2, §3, §4, §5, §6
Integrin Adhesion Assay: Protocol 5
as §7, with “VCAM” for “MAdCAM”, “by” for “using a”, “(Tecan)” for “(Tecan),”, “LOF” for “loss of function (LOF)”, “ITGB7” for “ITGB1”, “and 5% CO2.” for “at a CO2 concentration of 5%.”

Where [3] appears, read: Protocol 4, RPMI-8866 cells with LOF mutation of ITGB1, MAdCAM, read-out: Mean IC50 α4β7 KO.
[4] abbreviates: RPMI-8866 cells with stable LOF mutation of the ITGB1 gene, read-out: Mean IC50 α4β7 KO^a.
Where [5] appears, read: RPMI-8866 cells with stable LOF mutation of the ITGB7 gene, read-out: Mean IC50 α4β1 KO^b.
[6] abbreviates: Protocol 5, RPMI-8866 cells with LOF mutation of ITGB7, VCAM, read-out: Mean IC50 α4β1 KO.

Like-named read-outs stand apart in the source and are kept apart here.

Chain of α4β1 integrin (P13612 34-1032): as the sequence (P13612 34-1032) above
Chain of α4β1 integrin (P05556 21-798): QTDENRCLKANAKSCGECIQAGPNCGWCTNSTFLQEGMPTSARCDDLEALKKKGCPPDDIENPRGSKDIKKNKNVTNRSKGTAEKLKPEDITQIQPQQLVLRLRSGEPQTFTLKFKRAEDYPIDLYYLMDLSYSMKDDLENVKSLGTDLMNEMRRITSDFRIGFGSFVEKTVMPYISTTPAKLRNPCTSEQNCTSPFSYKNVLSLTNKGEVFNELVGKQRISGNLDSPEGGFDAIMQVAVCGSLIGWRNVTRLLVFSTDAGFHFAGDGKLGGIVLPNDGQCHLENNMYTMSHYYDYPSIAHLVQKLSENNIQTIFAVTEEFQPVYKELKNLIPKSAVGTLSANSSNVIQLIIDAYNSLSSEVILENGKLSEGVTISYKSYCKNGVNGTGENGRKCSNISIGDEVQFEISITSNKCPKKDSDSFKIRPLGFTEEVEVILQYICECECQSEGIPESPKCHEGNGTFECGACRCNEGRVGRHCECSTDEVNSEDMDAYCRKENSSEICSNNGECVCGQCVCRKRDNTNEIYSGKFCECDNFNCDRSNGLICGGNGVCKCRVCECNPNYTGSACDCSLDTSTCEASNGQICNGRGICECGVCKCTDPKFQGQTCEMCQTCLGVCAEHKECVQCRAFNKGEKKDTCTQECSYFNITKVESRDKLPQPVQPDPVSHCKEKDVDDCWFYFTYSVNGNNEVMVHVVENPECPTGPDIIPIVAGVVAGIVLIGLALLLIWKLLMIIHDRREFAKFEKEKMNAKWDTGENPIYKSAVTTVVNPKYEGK

`CN1CCc2nc(-c3cccc4c(C[C@H](NC(=O)C5(C(F)(F)F)CCN(CC(F)(F)F)CC5)C(=O)O)cccc34)ccc2C1` [Compound 755]: the IC50 in test [1] (setting [3]) was < 0.01 µM.

In the case of `CO[C@H]1C[C@@H](c2cc(F)c(C(=O)N[C@@H](Cc3cccc4c(-c5c(C(F)(F)F)c6ccccc6n(C)c5=O)cccc34)C(=O)O)c(F)c2)N(C)C1` [Compound 466], the IC50 in test [1] (setting [4]) was in the range of 0.1 to 1 µM.

As to `Cn1c(=O)c(-c2cccc3c(C[C@H](NC(=O)C4(C)C[C@H]5CN(CC(F)(F)F)C[C@H]5C4)C(=O)O)cccc23)c(C(F)(F)F)c2ccccc21` (stereo partly shown) [Compound 1047], the IC50 in test [1] (setting [3]) was 0.1 to 1 µM.

As to `COc1cccc(CN2CCCCC2)c1-c1cccc2c(C[C@H](NC(=O)c3c(F)cccc3C3CC3)C(=O)O)cccc12` [Compound 541], the IC50 in test [1] (setting [4]) is < 0.01 µM.

For `CN(C)Cc1cccc2c(-c3cccc4c(C[C@H](NC(=O)c5c(F)cc(N6CCOC[C@@H]6C(F)(F)F)cc5CN5CCC(N(C)C)CC5)C(=O)O)cccc34)nccc12` [Compound 434], the IC50 in test [2] (setting [5]) was > 1 µM.

Regarding `Cn1c(=O)c(-c2cccc3c(C[C@H](NC(=O)c4c(F)ccc(C5CC5)c4F)C(=O)O)cccc23)c(C(F)(F)F)c2ccccc21` [Compound 488], in test [1] (setting [4]), the IC50 was 0.1 to 1 µM.

For `Cc1cc(CN2CCN(C3CC3)CC2)cnc1-c1cccc2c(C[C@H](NC(=O)C3(C(F)(F)F)CCN(CC(F)F)CC3)C(=O)O)cccc12` [Compound 899], in test [1] (setting [3]), the IC50 is < 0.01 µM.

On to `COc1c(CN(C)C)ccc(C)c1-c1cccc2c(C[C@H](NC(=O)c3c(C)cccc3F)C(=O)O)cccc12` [Compound 1010], for which the IC50 in test [1] (setting [3]) is < 0.01 µM.

On to `CC[C@@H]1CCCCN1Cc1cnc(-c2cccc3c(C[C@H](NC(=O)C4(C(F)(F)F)CCN(CC(F)F)CC4)C(=O)O)cccc23)c2ccccc12` [Compound 932], for which the IC50 in test [2] (setting [6]) fell in the range of 0.1 to 1 µM.

Regarding `COc1cc2ccccc2cc1-c1cccc2c(C[C@H](NC(=O)C3(C(F)(F)F)CCN(CC(F)(F)F)CC3)C(=O)O)cccc12` [Compound 775], in test [2] (setting [6]), the IC50 is > 1 µM.

As to `Cc1cccc(F)c1C(=O)N[C@@H](Cc1cccc2c(-c3ncc(CN4CCC(F)(F)CC4)c4ccccc34)cccc12)C(=O)O` [Compound 1031], the IC50 in test [2] (setting [6]) was > 1 µM.

In the case of `CO[C@H]1C[C@H](c2cc(F)c(C(=O)N[C@@H](Cc3cccc4c(-c5c(C(F)(F)F)c6ccccc6n(C)c5=O)cccc34)C(=O)O)c(F)c2)N(C)C1` [Compound 467], the 50% inhibitory concentration (IC50) in test [1] (setting [4]) lay within 0.1 to 1 µM.

For `CCCS(=O)(=O)N1CCC(C(=O)N[C@@H](Cc2cccc3c(-c4c(OC)ccc(CN5CCC(F)(F)CC5)c4OC)cccc23)C(=O)O)(C(F)(F)F)CC1` [Compound 617], in test [1] (setting [4]), the IC50 fell in the range of 0.1 to 1 µM.

`COc1ccc(CN2CCC(C(F)(F)F)CC2)cc1-c1cccc2c(C[C@H](NC(=O)C3(C(F)(F)F)CCN(CC(F)F)CC3)C(=O)O)cccc12` [Compound 939]: in test [2] (setting [6]), the IC50 fell in the range of 0.1 to 1 µM.

Regarding `COc1c(-c2cccc3c(C[C@H](NC(=O)C4(C(F)(F)F)CCN(CC(F)(F)F)CC4)C(=O)O)cccc23)cc(CN2CCCCC2)cc1C(F)(F)F` [Compound 769], the IC50 in test [2] (setting [6]) was > 1 µM.

Turning to `Cc1c(CN2CCCCC2)ccnc1-c1cccc2c(C[C@H](NC(=O)C3(C(F)(F)F)CCN(CC(F)(F)F)CC3)C(=O)O)cccc12` [Compound 747], the 50% inhibitory concentration (IC50) in test [1] (setting [3]) was in the range of 0.01 to 0.1 µM.

For the compound `O=C(O)[C@H](Cc1cccc2c(-c3nccc4ccc(CCCN5CC6(CCC6)C5)cc34)cccc12)NC(=O)C1(C(F)(F)F)CCN(CC(F)(F)F)CC1` [Compound 745], the IC50 in test [1] (setting [3]) is < 0.01 µM.

`C[C@@H]1CN(CCc2cnc(-c3cccc4c(C[C@H](NC(=O)C5(C(F)(F)F)CCN(CC(F)(F)F)CC5)C(=O)O)cccc34)c3ccccc23)C[C@H](C)O1` [Compound 979]: in test [1] (setting [3]), the IC50 was < 0.01 µM.

`CN(Cc1cnc(-c2cccc3c(C[C@H](NC(=O)C4(C(F)(F)F)CCN(CC(F)(F)F)CC4)C(=O)O)cccc23)c2ccccc12)CC(F)(F)F` [Compound 895]: the IC50 in test [2] (setting [6]) was > 1 µM.

On to `Cn1c(=O)c(-c2cccc3c(C[C@H](NC(=O)c4c(F)cccc4F)C(=O)O)cccc23)c(C(F)(F)F)c2cc(CCN3CC(F)C3)ccc21` [Compound 715], for which, in test [2] (setting [6]), the IC50 was > 1 µM.

For the compound `O=C(O)[C@H](Cc1cccc2c(-c3cccc4ocnc34)cccc12)NC(=O)C1(C(F)(F)F)CCN(CC(F)(F)F)CC1` [Compound 770], in test [2] (setting [6]), the IC50 was > 1 µM.

As for `Cc1cccc(F)c1C(=O)N[C@@H](Cc1cccc2c(-c3c(C(F)(F)F)c4cc(CN5CCC(F)(F)CC5)ccc4n(C)c3=O)cccc12)C(=O)O` [Compound 1032], the IC50 in test [2] (setting [6]) was > 1 µM.

As to `O=C(O)[C@H](Cc1cccc2c(-c3cccc4cnoc34)cccc12)NC(=O)C1(C(F)(F)F)CCN(CC(F)(F)F)CC1` [Compound 772], the IC50 in test [2] (setting [6]) is > 1 µM.

With `COc1ccc(CCN2CCCC(F)C2)c(OC)c1-c1cccc2c(C[C@H](NC(=O)C3(C(F)(F)F)CCN(CC(F)(F)F)CC3)C(=O)O)cccc12` (stereo partly shown) [Compound 826], the IC50 in test [2] (setting [6]) fell in the range of 0.1 to 1 µM.

As for `O=C(O)[C@H](Cc1cccc2c(-c3c(CN4CCCCC4)ccc4cccnc34)cccc12)NC(=O)C1(C(F)(F)F)CCN(CC(F)(F)F)CC1` [Compound 767], the IC50 in test [2] (setting [6]) is > 1 µM.

With `COc1cccc(CN2CCCCC2)c1-c1cccc2c(C[C@H](NC(=O)c3c(F)cccc3-c3ccccc3)C(=O)O)cccc12` [Compound 693], the IC50 in test [2] (setting [6]) was > 1 µM.

On to `CN(Cc1cnc(-c2cccc3c(C[C@H](NC(=O)C4(C(F)(F)F)CCN(CC(F)F)CC4)C(=O)O)cccc23)c2ccccc12)CC(F)(F)F` [Compound 923], for which, in test [2] (setting [6]), the half-maximal inhibitory concentration (IC50) was > 1 µM.

Take `Cc1cccc(F)c1C(=O)N[C@@H](Cc1cccc2c(-c3ccccc3OCCN3CCCCC3)cccc12)C(=O)O` [Compound 1007]: in test [2] (setting [6]), the IC50 was > 1 µM.

Regarding `O=C(O)[C@H](Cc1cccc2c(-c3cccc4ncoc34)cccc12)NC(=O)C1(C(F)(F)F)CCN(CC(F)(F)F)CC1` [Compound 771], in test [2] (setting [6]), the IC50 is > 1 µM.

On to `COc1c(-c2cccc3c(C[C@H](NC(=O)C4(C(F)(F)F)CCN(CC(F)(F)F)CC4)C(=O)O)cccc23)ccc2ccccc12` [Compound 776], for which the IC50 in test [2] (setting [6]) is > 1 µM.

On to `Cn1c(=O)c(-c2cccc3c(C[C@H](NC(=O)C4(C(F)(F)F)CCN([C@H]5CCOC5)CC4)C(=O)O)cccc23)c(C(F)(F)F)c2ccccc21` [Compound 458], for which the IC50 in test [2] (setting [5]) lay in the range of 0.1 to 1 µM.
